This note sets out measurements from US5021411A, “Imidazodiazepine derivatives” (Hoffmann-La Roche Inc., priority 1988, dated 1991).

This assay addresses central benzodiazepine receptors (specific benzodiazepine receptors in the cerebral cortex). Description: Inhibition of the specific binding of tritiated diazepam at the specific benzodiazepine receptors in the cerebral cortex (affinity to central benzodiazepine receptors). To be noted: read-out: Affinity to benzodiazepine receptors IC 50. The source says:
The affinity of compounds of formula I to the central benzodiazepine receptors has been determined according to the method described in Life Science 20, 2101-2110 (1977) and Science 198, 849-851 (1977). According to this method, the inhibition of the binding of tritiated diazepam at the specific benzodiazepine receptors in the cerebral cortex by the respective test substances is ascertained. The IC50 ("50% inhibiting concentration") is that concentration of the respective test substance which brings about a 50 percent inhibition of the specific binding of the tritiated diazepam at the specific benzodiazepine receptors in the cerebral cortex.

Molecules are shown by their SMILES.

Take `C/C(C#Cc1ncn2c1CN(C)C(=O)c1c(Cl)cccc1-2)=C/CO` [D, 7-chloro-4,5-dihydro-3-[(Z)-5-hydroxy-3-methyl-3-penten-1-ynyl]-5-methyl-6H-imidazo[1,5-a][1,4]-benzodiazepin-6-one]: the IC50 was determined as 1.4 nM.
Consider `C/C(C#Cc1ncn2c1CN(C)C(=O)c1c(Cl)cccc1-2)=C\CO` [F, 7-chloro-4,5-dihydro-3-[(E)-5-hydroxy-3-methyl-3-penten-1-ynyl]-5-methyl-6H-imidazo[1,5-a][1,4]-benzodiazepin-6-one], for which the IC50 turned out to be 2.2 nM.
Take `CC(=O)OCC#Cc1ncn2c1CN(C)C(=O)c1c(Cl)cccc1-2` [B, 3-(7-chloro-5,6-dihydro-5-methyl-6-oxo-4H-imidazo[1,5-a][1,4]benzodiazepin-3-yl)-2-propynyl acetate]: the IC50 stood at 2.6 nM.
On to `C=CC(C)(O)C#Cc1ncn2c1CN(C)C(=O)c1c(Cl)cccc1-2` (stereo not drawn) [E, 7-chloro-4,5-dihydro-3-(3-hydroxy-3-methyl-4-penten-1-ynyl)-5-methyl-6H-imidazo[1,5-a][1,4]benzodiazepin-6-one], for which the IC50 stood at 3.7 nM.
In the case of `CN1Cc2c(C#CCOCC3CC3)ncn2-c2cccc(Cl)c2C1=O` [A, 7-Chloro-3-[3-(cyclopropylmethoxy)-1-propynyl]-4,5-dihydro-5-methyl-6H-imidazo[1,5-a][1,4]benzodiazepin-6-one] it was 1.4 nM; in that of `CN1Cc2c(C#CC(C)(C)OCC3CC3)ncn2-c2cccc(Cl)c2C1=O` [C, 7-chloro-3-[3-(cyclopropylmethoxy)-3-methyl-1-butynyl]-4,5-dihydro-5-methyl-6H-imidazo[1,5-a][1,4]benzodiazepin-6-one], 5 nM.
